This is an account of results in ChEMBL document CHEMBL3991601, “The target landscape of clinical kinase drugs” (Science, 2017).

Calls of active or inactive are those of the source. For most assays here, no stated cut-off is given here; in the data, actives have a measured Kd and inactives only a lower limit.

Assay [1] has as its target Adenylate kinase 2, mitochondrial (Homo sapiens, UniProt P54819).
Assay [2] concerns the target T1, Breakpoint cluster region protein (Homo sapiens, UniProt P11274).
T1 sequence (P11274 whole entry): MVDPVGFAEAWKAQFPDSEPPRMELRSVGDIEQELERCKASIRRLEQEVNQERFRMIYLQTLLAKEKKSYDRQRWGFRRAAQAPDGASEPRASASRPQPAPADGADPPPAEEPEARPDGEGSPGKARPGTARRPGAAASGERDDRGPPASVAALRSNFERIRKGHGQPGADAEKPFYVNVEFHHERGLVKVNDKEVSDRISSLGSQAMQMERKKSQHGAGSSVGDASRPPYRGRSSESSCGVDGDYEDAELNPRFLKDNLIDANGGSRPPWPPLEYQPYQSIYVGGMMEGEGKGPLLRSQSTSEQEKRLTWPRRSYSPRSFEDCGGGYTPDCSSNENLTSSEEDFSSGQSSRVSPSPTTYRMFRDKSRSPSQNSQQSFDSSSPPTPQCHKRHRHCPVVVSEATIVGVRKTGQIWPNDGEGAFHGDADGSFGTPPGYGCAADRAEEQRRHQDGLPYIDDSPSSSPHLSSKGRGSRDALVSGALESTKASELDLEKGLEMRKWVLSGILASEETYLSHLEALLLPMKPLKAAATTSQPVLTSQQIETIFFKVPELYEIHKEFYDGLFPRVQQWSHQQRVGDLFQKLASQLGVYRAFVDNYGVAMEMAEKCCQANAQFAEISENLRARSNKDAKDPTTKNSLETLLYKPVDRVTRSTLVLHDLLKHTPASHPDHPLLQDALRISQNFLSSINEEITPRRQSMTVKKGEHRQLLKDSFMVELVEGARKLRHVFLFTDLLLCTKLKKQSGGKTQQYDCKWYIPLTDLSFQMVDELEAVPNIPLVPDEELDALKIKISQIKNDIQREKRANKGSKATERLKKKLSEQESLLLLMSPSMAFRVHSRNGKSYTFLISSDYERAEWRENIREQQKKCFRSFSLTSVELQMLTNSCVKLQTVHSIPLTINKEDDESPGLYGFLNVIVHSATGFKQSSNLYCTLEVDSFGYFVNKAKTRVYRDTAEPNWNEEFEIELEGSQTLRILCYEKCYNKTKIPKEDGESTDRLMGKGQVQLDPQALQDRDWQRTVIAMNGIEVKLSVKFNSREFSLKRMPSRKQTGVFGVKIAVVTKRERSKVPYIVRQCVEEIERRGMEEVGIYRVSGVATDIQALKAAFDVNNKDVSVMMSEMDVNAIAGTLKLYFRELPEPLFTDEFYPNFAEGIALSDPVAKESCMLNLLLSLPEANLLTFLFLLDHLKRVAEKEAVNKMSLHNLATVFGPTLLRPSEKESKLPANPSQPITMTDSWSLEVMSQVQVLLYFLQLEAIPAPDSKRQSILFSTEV

The target in assay [3] is Deoxycytidine kinase (Homo sapiens, UniProt P27707).
For assay [4], the target named is Dual specificity mitogen-activated protein kinase kinase 1 (Homo sapiens, UniProt Q02750).
Assay [5] has as its target T2, Serine/threonine-protein kinase D2 (Homo sapiens, UniProt Q9BZL6).
T2 sequence (Q9BZL6 whole entry): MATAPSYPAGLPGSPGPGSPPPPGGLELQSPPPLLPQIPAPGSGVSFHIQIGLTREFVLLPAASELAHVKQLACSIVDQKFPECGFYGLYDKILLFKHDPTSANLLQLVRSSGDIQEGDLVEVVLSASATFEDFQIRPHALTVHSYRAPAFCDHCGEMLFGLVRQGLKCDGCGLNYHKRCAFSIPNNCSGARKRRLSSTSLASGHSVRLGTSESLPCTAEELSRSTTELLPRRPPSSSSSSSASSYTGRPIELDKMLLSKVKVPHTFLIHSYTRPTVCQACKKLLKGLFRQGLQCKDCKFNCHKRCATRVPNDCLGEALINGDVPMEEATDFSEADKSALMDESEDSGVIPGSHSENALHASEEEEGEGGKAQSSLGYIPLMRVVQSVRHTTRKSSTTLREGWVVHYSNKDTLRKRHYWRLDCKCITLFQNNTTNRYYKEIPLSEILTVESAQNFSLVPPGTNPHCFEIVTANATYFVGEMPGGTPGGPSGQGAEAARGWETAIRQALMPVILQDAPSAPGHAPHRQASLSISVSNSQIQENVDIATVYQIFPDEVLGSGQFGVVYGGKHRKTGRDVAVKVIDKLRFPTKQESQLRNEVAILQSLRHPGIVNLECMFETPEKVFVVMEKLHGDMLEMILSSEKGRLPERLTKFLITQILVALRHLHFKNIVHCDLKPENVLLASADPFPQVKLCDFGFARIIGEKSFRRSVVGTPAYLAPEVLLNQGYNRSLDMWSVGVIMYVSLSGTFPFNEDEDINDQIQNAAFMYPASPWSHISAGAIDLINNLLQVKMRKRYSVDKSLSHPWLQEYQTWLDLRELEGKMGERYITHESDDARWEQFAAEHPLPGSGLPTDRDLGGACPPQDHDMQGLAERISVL

Assay [6] deals with Ribosomal protein S6 kinase alpha-6 (Homo sapiens, UniProt Q9UK32).
In assay [7] the target is T3, Serine/threonine-protein kinase STK11 (Homo sapiens, UniProt Q15831).
T3 sequence (Q15831 whole entry): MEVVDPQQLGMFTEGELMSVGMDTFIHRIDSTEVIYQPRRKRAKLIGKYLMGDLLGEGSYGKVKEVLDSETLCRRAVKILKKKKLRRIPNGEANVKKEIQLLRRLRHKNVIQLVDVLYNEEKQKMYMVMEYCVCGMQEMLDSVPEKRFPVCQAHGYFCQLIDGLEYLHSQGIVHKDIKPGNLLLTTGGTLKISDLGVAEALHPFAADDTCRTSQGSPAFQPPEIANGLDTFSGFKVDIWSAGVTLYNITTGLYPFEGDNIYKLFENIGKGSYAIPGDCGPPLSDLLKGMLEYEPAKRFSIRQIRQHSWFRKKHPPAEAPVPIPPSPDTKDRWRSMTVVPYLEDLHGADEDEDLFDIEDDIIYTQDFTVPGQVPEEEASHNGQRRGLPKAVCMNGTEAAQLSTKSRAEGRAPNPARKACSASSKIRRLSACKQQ

Sequence of Deoxycytidine kinase (P27707 whole entry): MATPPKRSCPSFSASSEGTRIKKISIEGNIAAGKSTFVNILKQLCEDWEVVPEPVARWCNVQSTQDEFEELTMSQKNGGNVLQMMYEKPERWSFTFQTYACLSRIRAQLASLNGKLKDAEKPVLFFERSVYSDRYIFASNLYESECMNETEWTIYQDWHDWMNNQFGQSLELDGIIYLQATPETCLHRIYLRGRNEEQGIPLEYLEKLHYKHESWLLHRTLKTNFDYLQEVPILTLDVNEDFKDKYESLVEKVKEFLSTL
Sequence of Ribosomal protein S6 kinase alpha-6 (Q9UK32 whole entry): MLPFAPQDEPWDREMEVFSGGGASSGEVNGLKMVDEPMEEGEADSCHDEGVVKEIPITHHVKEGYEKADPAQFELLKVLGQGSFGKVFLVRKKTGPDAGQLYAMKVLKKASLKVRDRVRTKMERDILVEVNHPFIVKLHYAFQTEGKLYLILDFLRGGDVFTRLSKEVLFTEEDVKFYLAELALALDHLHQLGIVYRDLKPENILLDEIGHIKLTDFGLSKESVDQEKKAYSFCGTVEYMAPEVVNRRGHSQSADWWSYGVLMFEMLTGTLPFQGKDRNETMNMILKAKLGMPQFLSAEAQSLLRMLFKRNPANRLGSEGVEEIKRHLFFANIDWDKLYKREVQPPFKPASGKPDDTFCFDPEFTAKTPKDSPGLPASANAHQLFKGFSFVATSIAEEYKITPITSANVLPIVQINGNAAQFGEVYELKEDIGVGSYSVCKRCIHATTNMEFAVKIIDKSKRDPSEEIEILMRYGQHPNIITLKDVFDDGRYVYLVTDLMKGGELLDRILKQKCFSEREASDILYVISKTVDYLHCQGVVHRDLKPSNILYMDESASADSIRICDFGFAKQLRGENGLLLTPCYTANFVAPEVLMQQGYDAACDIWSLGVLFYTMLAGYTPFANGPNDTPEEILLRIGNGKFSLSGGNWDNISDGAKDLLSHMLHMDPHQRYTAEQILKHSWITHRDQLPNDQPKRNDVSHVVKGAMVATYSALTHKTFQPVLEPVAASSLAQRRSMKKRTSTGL
Sequence of Dual specificity mitogen-activated protein kinase kinase 1 (Q02750 whole entry): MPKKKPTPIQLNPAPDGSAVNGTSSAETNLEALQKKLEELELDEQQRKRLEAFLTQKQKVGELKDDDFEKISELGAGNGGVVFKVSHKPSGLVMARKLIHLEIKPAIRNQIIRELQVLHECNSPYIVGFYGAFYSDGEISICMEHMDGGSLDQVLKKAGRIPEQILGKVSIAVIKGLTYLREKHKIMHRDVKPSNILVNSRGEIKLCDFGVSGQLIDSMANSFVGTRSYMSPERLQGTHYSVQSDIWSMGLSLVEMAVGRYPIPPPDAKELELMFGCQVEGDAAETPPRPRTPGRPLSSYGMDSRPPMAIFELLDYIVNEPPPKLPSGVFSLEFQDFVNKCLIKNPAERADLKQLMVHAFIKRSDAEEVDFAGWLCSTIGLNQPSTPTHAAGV

As usually defined, the Kd is the equilibrium constant for the complex coming apart. For `Cc1c(F)cc(C(=O)NC2CC2)cc1-c1ccc(C(=O)NCC(C)(C)C)cn1` [LOSMAPIMOD], the Kd in assay [1], in assay [2], in assay [3], in assay [4], in assay [5] and in assay [6] was > 30 µM (inactive) in each case. In assay [7], the Kd is > 30 µM (inactive).

As for `COc1cc(CCc2cc(NC(=O)c3ccc(N4C[C@@H](C)N[C@@H](C)C4)cc3)n[nH]2)cc(OC)c1` [AZD-4547], the Kd in assay [1], in assay [2], in assay [3], in assay [4], in assay [5] and in assay [6] was > 30 µM (inactive) each time. Further, the Kd in assay [7] is > 30 µM (inactive).

Regarding `C=CC(=O)N1CCC(Oc2cc3c(Nc4ccc(Cl)c(Cl)c4F)ncnc3cc2OC)CC1` [POZIOTINIB], the Kd in assay [1], in assay [2], in assay [3], in assay [4], in assay [5] and in assay [6] was > 30 µM (inactive) in each case. In assay [7], the Kd was > 30 µM (inactive).

As to `Cc1cc2c(F)c(Oc3ncnn4cc(OC[C@@H](C)OC(=O)[C@H](C)N)c(C)c34)ccc2[nH]1` [BRIVANIB ALANINATE], the Kd in assay [1], in assay [2], in assay [3], in assay [4], in assay [5] and in assay [6] was > 30 µM (inactive) each time. Besides, the Kd in assay [7] was > 30 µM (inactive).

With `C1=C/COCc2cc(ccc2OCCN2CCCC2)Nc2nccc(n2)-c2cccc(c2)COC/1` [PACRITINIB], the Kd in assay [1], in assay [2], in assay [3], in assay [4], in assay [5] and in assay [6] was > 30 µM (inactive) throughout. This compound also yielded a Kd in assay [7] of 0.003 µM.

For `C[C@@H]1CN(Cc2ccc(F)cc2)[C@@H](C)CN1C(=O)c1cc2c(C(=O)C(=O)N(C)C)cn(C)c2cc1Cl` [TALMAPIMOD], the Kd in assay [1], in assay [2], in assay [3], in assay [4], in assay [5] and in assay [6] was > 30 µM (inactive) each time. In addition, the Kd in assay [7] was > 30 µM (inactive).

As to `CN1CCC(COc2cnc(-c3cccc(Cn4nc(-c5cccc(C#N)c5)ccc4=O)c3)nc2)CC1` [TEPOTINIB], the Kd in assay [1], in assay [2], in assay [3], in assay [4], in assay [5] and in assay [6] was > 30 µM (inactive) throughout. In addition, the Kd in assay [7] was > 30 µM (inactive).

In the case of `CNC(=O)c1ccc(C)c(-n2c(C)cc(OCc3ccc(F)cc3F)c(Br)c2=O)c1` [PH-797804], the Kd in assay [1], in assay [2], in assay [3], in assay [4], in assay [5] and in assay [6] was > 30 µM (inactive) in each case. For the same compound, the Kd in assay [7] was > 30 µM (inactive).

`COc1cc2nccc(Oc3ccc(NC(=O)Nc4cc(C)on4)c(Cl)c3)c2cc1OC` [TIVOZANIB]: the Kd in assay [1] is > 30 µM (inactive); in assay [2], 0.16 µM (active); in assay [3], > 30 µM (inactive); in assay [4], > 30 µM (inactive); in assay [5], > 30 µM (inactive); in assay [6] it was > 30 µM (inactive). The Kd in assay [7] was > 30 µM (inactive).

With `N[C@@H]1CCCN(c2c(/C=C3\SC(=O)NC3=O)cccc2-c2ccccc2)C1`, the Kd in assay [1], in assay [2], in assay [3], in assay [4], in assay [5] and in assay [6] was > 30 µM (inactive) in each case. In assay [7], the Kd was > 30 µM (inactive).

`COc1cc(N2CCC(N3CCN(C)CC3)CC2)ccc1Nc1ncnc(Nc2ccccc2S(=O)(=O)C(C)C)n1` [ASP-3026]: the Kd is > 30 µM (inactive) in assay [1]; > 30 µM (inactive) in assay [2]; > 30 µM (inactive) in assay [3]; > 30 µM (inactive) in assay [4]; 2.67 µM (active) in assay [5]; > 30 µM (inactive) in assay [6]. The Kd in assay [7] was > 30 µM (inactive).

For the compound `Cc1cc([C@@H](C)Nc2ccccc2C(=O)O)c2nc(N3CCOCC3)cc(=O)n2c1` [AZD-6482], the Kd in assay [1], in assay [2], in assay [3], in assay [4], in assay [5] and in assay [6] was > 30 µM (inactive) in each case. In assay [7], the Kd was > 30 µM (inactive).

As for `CN1CCC(CNc2ccc3ncc(-c4cccc(OC(F)(F)F)c4)n3n2)CC1` [SGI-1776], the Kd in assay [1] was > 30 µM (inactive); in assay [2], > 30 µM (inactive); in assay [3], > 30 µM (inactive); in assay [4] it was > 30 µM (inactive); in assay [5], > 30 µM (inactive); in assay [6], 23.8 µM (active). Moreover, the Kd in assay [7] is > 30 µM (inactive).

On to `O=c1sn(-c2cccc3ccccc23)c(=O)n1Cc1ccccc1` [TIDEGLUSIB], for which the Kd in assay [1], in assay [2], in assay [3], in assay [4], in assay [5] and in assay [6] was > 30 µM (inactive) in each case. In assay [7], the Kd is > 30 µM (inactive).
